In the assay the target is T1, rat brain farnesyl protein transferase (Rattus norvegicus, UniProt Q02293+Q04631).
T1 construct: 40-fold purified rat brain farnesyl protein transferase; from tissue; host or cells: rat brain
Kind of assay: Protein:farnesyltransferase (PFT/FPT) inhibitory activity assay. The format is biochemical.

Where [1] appears, read: Hepes (without 5 mM phosphate), read-out: Farnesyl Protein Transferase Inhibition, Hepes, IC50.
The mark [2] stands for this setting: Hepes/5 mM PO4^-3, pH 7.4, read-out: Farnesyl Protein Transferase Inhibition, Hepes/5 mM PO4^-3, IC50.

Structures can show the parent of a compound that is named as a salt. Where two headings read alike, the source gives them in different places.

For the compound `O=C(N[C@@H](Cc1c[nH]cn1)C(=O)NCCn1ccnc1)C(Cc1cccc2ccccc12)Cc1cccc2ccccc12` [Example 25, (S)-N-[2-(1H-Imidazol-4-yl)-1-(2-imidazol-1-yl-ethylcarbamoyl)-ethyl]-3-naphthalen-1-yl-2-naphthalen-1-ylmethyl-propionamide], the IC50 by setting is: under setting [1], 1900 nM; under setting [2], 1500 nM.
The like results for `CCCNC(=O)[C@H](Cc1c[nH]cn1)NC(=O)C(Cc1cccc2ccccc12)Cc1cccc2ccccc12` [Example 46] were, in that order, 4900 nM and 5600 nM.
The like results for `CCN(CC)CCNC(=O)[C@H](Cc1c[nH]cn1)NC(=O)C(Cc1cccc2ccccc12)Cc1cccc2ccccc12` [Example 32] were, in that order, 19000 nM and 14000 nM.
Turning to `O=C(N[C@@H](Cc1c[nH]cn1)C(=O)OCCn1ccnc1)C(Cc1cccc2ccccc12)Cc1cccc2ccccc12` [Example 47, (S)-3-[1H-Imidazol-4-yl)-2-(3-naphthalen-1-yl-2-naphthalen-1-ylmethyl-propionylamino)-propionic acid, 2-imidazol-1-yl-ethyl ester], the IC50 amounted to 1100 nM under setting [1] and 1400 nM under setting [2].
In the case of `COC(=O)COC(=O)[C@H](Cc1c[nH]cn1)NC(=O)C(Cc1cccc2ccccc12)Cc1cccc2ccccc12` [Example 57, (S)-3-(1H-Imidazol-4-yl)-2-(3-naphthalen-1-yl-2-naphthalen-1-ylmethyl-propionylamino)-propionic acid, methoxycarbonylmethyl ester], the IC50 worked out at 5500 nM under setting [1] and 4100 nM under setting [2].
As to `CC(C#N)OC(=O)[C@H](Cc1c[nH]cn1)NC(=O)C(Cc1cccc2ccccc12)Cc1cccc2ccccc12` (mixture of isomers) [Example 61, (S)-3-(1H-Imidazol-4-yl)-2-(3-naphthalen-1-yl-2-naphthalen-1-ylmethyl-propionylamino)-propionic acid, (±)-1-cyano-ethyl ester], the IC50 is, setting by setting: under setting [1], 640 nM; under setting [2], 610 nM.
With `CCSCCNC(=O)[C@H](Cc1c[nH]cn1)NC(=O)C(Cc1cccc2ccccc12)Cc1cccc2ccccc12` [Example 26, (S)-N-[1-(2-Ethylsulfanyl-ethylcarbamoyl)-2-(1H-imidazol-4-yl)-ethyl]-3-naphthalen-1-yl-2-naphthalen-1-ylmethyl-propionamide], the IC50 is, setting by setting: under setting [1], 12000 nM; under setting [2], 8700 nM.
As for `CC(C)=CCOC(=O)[C@H](Cc1c[nH]cn1)NC(=O)C(Cc1cccc2ccccc12)Cc1cccc2ccccc12` [Example 55, (S)-3-(1H-Imidazol-4-yl)-2-(3-naphthalen-1-yl-2-naphthalen-1-ylmethyl-propionylamino)-propionic acid 3-methyl-but-2-enyl ester], the IC50 under setting [1] worked out at 5300 nM and the IC50 under setting [2] is 4300 nM.
As to `O=C(N[C@@H](Cc1c[nH]cn1)C(=O)OCCO)C(Cc1cccc2ccccc12)Cc1cccc2ccccc12` [Example 42, (S)-3-(1H-Imidazol-4-yl)-2-(3-naphthalen-1-yl-2-naphthalen-1-ylmethyl-propionylamino)-propionic acid, 2-hydroxy-ethyl ester, trifluoroacetate salt], the IC50 by setting is: under setting [1], 1800 nM; under setting [2], 1300 nM.
For `CC(=O)NCCSC(=O)[C@H](Cc1c[nH]cn1)NC(=O)C(Cc1cccc2ccccc12)Cc1cccc2ccccc12` [Example 40, (S)-3-(1H-Imidazol-4-yl)-2-(3-naphthalen-1-yl-2-naphthalen-1-ylmethyl-propionylamino)-thiopropionic acid, S-(2-acetylamino-ethyl)ester] the same measures were 2600 nM and 3200 nM.
Turning to `O=C(N[C@@H](Cc1c[nH]cn1)C(=O)OCCSSCCO)C(Cc1cccc2ccccc12)Cc1cccc2ccccc12` [Example 59, (S)-3-(1H-Imidazol-4-yl)-2-(3-naphthalen-1-yl-2-naphthalen-1-ylmethyl-propionylamino)-propionic acid, 2-(2-hydroxy-ethyldisulfanyl)-ethyl ester], the IC50 reads like this: under setting [1], 1300 nM; under setting [2], 1000 nM.

(Values after patent US6008372A, “Substituted dinaphthylmethyl and diheteroarylmethylacetyl histidine inhibitors of protein farnesyltransferase” (Warner-Lambert Company, priority 1998, dated 1999).)
